# Positions count from the first letter of the chain named.
# Experiments:
# [1] = molecular target: T1, human wild type TauT (TauT^WT) (Homo sapiens, UniProt P31641); assay: [3H]taurine uptake inhibition assay in HEK293T cells overexpressing TauT^WT; format: cell-based; conditions: result in words
# T1 sequence (P31641 1-620): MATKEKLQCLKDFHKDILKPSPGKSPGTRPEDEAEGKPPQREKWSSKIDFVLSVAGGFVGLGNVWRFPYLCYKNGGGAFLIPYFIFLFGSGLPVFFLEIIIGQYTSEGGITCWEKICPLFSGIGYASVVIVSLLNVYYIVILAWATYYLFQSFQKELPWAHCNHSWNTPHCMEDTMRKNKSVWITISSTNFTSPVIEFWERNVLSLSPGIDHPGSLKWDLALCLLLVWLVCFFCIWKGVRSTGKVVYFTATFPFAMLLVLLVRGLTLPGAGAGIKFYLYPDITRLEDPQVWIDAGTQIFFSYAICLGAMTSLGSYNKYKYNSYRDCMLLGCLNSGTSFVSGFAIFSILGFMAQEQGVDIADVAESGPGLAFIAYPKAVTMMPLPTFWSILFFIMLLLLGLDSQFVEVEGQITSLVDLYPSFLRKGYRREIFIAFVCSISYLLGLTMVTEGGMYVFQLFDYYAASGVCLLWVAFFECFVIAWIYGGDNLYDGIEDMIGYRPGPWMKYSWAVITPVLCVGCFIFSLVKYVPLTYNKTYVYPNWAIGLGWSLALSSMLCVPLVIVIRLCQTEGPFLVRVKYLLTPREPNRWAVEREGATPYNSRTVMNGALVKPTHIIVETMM
# TauT F300A mutant = molecular target: T2, TauT F300A mutant (Homo sapiens, UniProt P31641, F300A); assay: MST binding, TauT F300A; conditions: mean ± s.e.m., n=3
# T2 sequence (P31641 1-620 F300A): T1 sequence (P31641 1-620) with F300A
# TauT Y138A mutant = molecular target: T3, TauT Y138A mutant (Homo sapiens, UniProt P31641, Y138A); assay: MST binding, TauT Y138A; conditions: mean ± s.e.m., n=3
# T3 sequence (P31641 1-620 Y138A): T1 sequence (P31641 1-620) with Y138A
# TauT E406A mutant = molecular target: T4, TauT E406A mutant (Homo sapiens, UniProt P31641, E406A); assay: MST binding, TauT E406A; conditions: mean ± s.e.m., n=3
# T4 sequence (P31641 1-620 E406A): T1 sequence (P31641 1-620) with E406A
inhibition of the uptake activity of TauT [1],Kd (MST) (TauT F300A mutant),Kd (MST) (TauT Y138A mutant),SMILES,Kd (MST) (TauT E406A mutant)
potent inhibitory effects,complete loss of the binding,complete loss of the binding,"NCCCC(=O)O [GABA, γ-aminobutyric acid]",reduces the binding affinity of GABA slightly
potent inhibitory effects,drastic loss of GAA binding affinity,drastic loss of GAA binding affinity,"[H]/N=C(/N)NCC(=O)O [GAA, guanidinoacetate]",only marginally weakened the binding affinity

SMILES,inhibition of the uptake activity of TauT [1],Kd (MST) (TauT F300A mutant),Kd (MST) (TauT Y138A mutant),Kd (MST) (TauT E406A mutant)
"NCCS(=O)(=O)O [Taurine, taurine]",–,reduced the taurine binding to varying extents,undetectable binding,reduced the taurine binding to varying extents

# Reference: article PMC12339982 (Nature Communications, 2025)
